# From patent US7528226B2, “TGFβ1-inhibitor peptides” (Rojecto de Biomedicina Cima S.L., priority 1998, dated 2009)
# No end group written: not given here.
# Columns and labels:
# [1] = tested on: type I, II and III cell receptors of TGFβ1; assay: Affinity labelling: inhibition of binding of 125I-TGFβ1 to its cell receptors on MV-1-Lu cells; parameters: species or system human
# Procedure: The MV-1-Lu cells were removed from the culture flasks incubating them at 37° C. for 10 minutes, with 10 ml of solution 1 (128 mM NaCl, 5 mM KCl, 25 mM 4-(2-hydroxyethyl)-1-piperazine ethanesulphonate at pH 7.5, 5 mM glucose and 1 mM EDTA). The cells thus removed were resuspended in solution 2 (128 Mm NaCl, 5 mM KCl, 50 mM 4-(2-hydroxyethyl)-1-piperazine ethanesulphonate at pH 7.5, 1.2 mM CaCl2, 1.2 mM MgSO4 and 5 mg/ml BSA) and were collected by centrifugation at 1000×g for 5 minutes. After centrifugation the cells were resuspended in solution 2 at a concentration of 10^6 cells/ml.
# From this cell suspension, 0.5 ml aliquots were made in 24-well plates (Greiner GmbH, Frickenhausen, Germany), the peptides were added, in 50 μl of a 0.8 mg/ml solution, then this was incubated for 2 hours at 4° C. with stirring. Next, ^125I-TGFβ1 (2 μCi) was added to a final concentration of 277.2 pM (^125I-TGFβ1 human recombinant 800-2200 Ci/mmol, Amersham Life Science, Buckinghamshire, UK) and this was incubated for a further two hours at 4° C. with stirring.
# After incubation, the cells were transferred to a centrifuge tube and were centrifuged cold at 12,000×g for 1 minute. […]
# [2] = tested on: experimental cirrhosis with CCl4; assay: Model of experimental cirrhosis induced with CCl4 in Wistar rats (collagen / fibrosis); type: in vivo, rat
# Procedure: Male white rats (albino Wistar strain) from simultaneous litters (5 weeks±1.5 weeks) were used, in order to obtain a group that was homogeneous in age and initial weight. Throughout the experiments, the animals were kept in conditions of constant temperature (22° C.) with a 12-hour cycle of light and darkness. They had free access to water and food.
# Hepatic cirrhosis (HC) was induced by inhalation of carbon tetrachloride for 11 weeks, twice per week (López Novoa J M et al. (1976) Patologia IX:223-240; Camps J. et al. (1987) Gastroenterology 93:498-505). Exposure to CCl4 was effected by bubbling compressed air, at a flow rate of 3 liters/min, through a gas wash-bottle. […] CCl4 was not administered during the fifth week, starting again at the sixth week with an exposure of 5 minutes. This exposure time was maintained until week 11. 400 mg/l of phenobarbital (Luminal®, Bayer, Leverkusen, Germany) was added to the drinking water, from one week before starting exposure to CCl4 and until the end of the experimental period. Before starting the treatment, one week was left, in which they were not administered CCl4. During treatment they were administered a weekly dose of CCl4, as recorded (FIG. 2).
# The animals were divided into 4 groups before beginning the process of induction of hepatic cirrhosis. • Healthy controls (Co): Animals that were not subjected to the fibrosis process. • Treated healthy controls (Co+P144): Animals that were not subjected to the fibrosis process and that were administered the peptide P144 during the last 3 weeks (coinciding in time with the treatment of the group of rats Tto2). • Cirrhotic controls 1 (Ci1): Animals subjected to the process of induction of cirrhosis by inhalation of CCl4 twice per week. These animals were separated into 2 groups on reaching the fifth week: • Cirrhotic controls 1 (Ci1): Animals that continued to be subjected to the process of induction of fibrosis up to week 11, without being administered the peptide P144. They were administered saline serum on alternate days, throughout the induction process (weeks 5 to 11). • Treated cirrhotics 1 (Tto1): Animals that were administered the peptide P144 derived from the sequence of the type III receptor, on alternate days, during the process of induction of fibrosis, from week 5 to week 11. • Cirrhotic controls 2 (Ci2): Animals that continued to be subjected to the process of induction of fibrosis without receiving the peptide P144 or saline serum. This group was subdivided into another two on reaching week 11. • Cirrhotic controls 2 (Ci2): Cirrhotic animals that were not subjected to any type of treatment, kept as controls. […]
sequence,measurement,setting,value
"TSLDASIIWAMMQN [P144, ThrSerLeuAspAlaSerIleIleTrpAlaMetMetGlnAsn]",inhibition of the binding of 125I-TGFβ1 to the cell receptors,[1]; preincubation with peptide at 10^6 times the molar concentration of 125I-TGFβ1,inhibition of the binding
same,concentration at which the peptide lost its activity,"[1]; titration of the peptide, affinity labelling",2×10^5 times the molar concentration of ^125I-TGFβ1
same,"ratio of collagen to total protein, treated (Tto1) vs cirrhotic controls (Ci1)","[2]; protocol 1: 70 μg/animal on alternate days during cirrhosis induction, Fast Green/Direct Red, spectrophotometer",significant differences are observed (P<0.05)
same,"area of fibrosis, treated (Tto1) vs cirrhotic controls (Ci1)","[2]; protocol 1: 70 μg/animal on alternate days during cirrhosis induction, image analysis, Sirius Red",also significant (P<0.001)
same,"ratio of collagen to total protein, treated (Tto2) vs cirrhotic controls (Ci2)",[2]; protocol 2: 70 μg/animal on alternate days for 3 weeks once cirrhosis was established,not significant
same,"area of fibrosis, treated (Tto2) vs cirrhotic controls (Ci2)","[2]; protocol 2: 70 μg/animal on alternate days for 3 weeks once cirrhosis was established, image analysis",not significant
